Patent US11554103B2, “Compositions and methods to reduce pharmaceutical-induced toxicity” (priority 2016, dated 2023)
“Also recorded” adds a separate entry of the source.

Tests used:
[1] = system: substantia nigra pars compacta dopaminergic neurons; test: Ex vivo brain slice mitochondrial oxidant stress, mito-roGFP probe, two photon microscopy; assay type: cell-based, mouse; details: for effect on methamphetamine-induced dendritic mitochondrial stress / effect on methamphetamine-induced axonal (terminal) mitochondrial stress: 10 μM methamphetamine; for effect on methamphetamine-induced dendritic mitochondrial stress / effect on methamphetamine-induced axonal (terminal) mitochondrial stress / effect on levodopa-induced dendritic mitochondrial stress / effect on levodopa-induced axonal (terminal) mitochondrial stress / basal mitochondrial stress, monoamine oxidase inhibitor alone: clorgyline 5 μM; for effect on levodopa-induced dendritic mitochondrial stress / effect on levodopa-induced axonal (terminal) mitochondrial stress: 100 μM levodopa; for basal mitochondrial stress, monoamine oxidase inhibitor alone: dendrites and axons; for effect on methamphetamine- and levodopa-induced mitochondrial stress: slices pre-incubated with the MAO inhibitor
Protocol: (§1) Animals and treatment paradigms: Male C57/B16 and TH-mitoroGFP (Guzman et al., 2010 Nature p. 696; incorporated by reference in its entirety) mice 5-8 wks of age were used for all imaging studies. In addition to the TH-mitoroGFP transgenic line, roGFP was virally delivered into the SNc of C57/B16 mice (either targeting cytosolic or mitochondrial compartments).
Two photon microscopy: Ex vivo slices of the dorsolateral striatum or SNc were prepared and redox status determined as previously described (Guzman et al., 2010 Nature p. 696; incorporated by reference in its entirety). […] The dynamic range of the probe was determined by perfusing 2 mM dithiothreitol (DTT) to fully reduce the probe and 200 μM aldrithiol to fully oxidize the probe; data presented as % relative oxidation.
Stereotaxic surgery: PCR amplified roGFP, mitoroGFP and IMSroGFP inserts were subcloned into pFB-TH-SV40pA vector between EcoR1 and SalI sites. After sequence and expression verification, pFB-TH-roGFP vectors were packaged into rAAVs using serotype 9 with titers 2.1-×10^13 viral genome copies/ml (Virovek). Mice were anesthetized using an isoflurane precision vaporizer (Smiths Medical PM) and placed in a stereotaxic frame (David Kopf Instruments) with a Cunningham adaptor (Harvard Apparatus) to maintain anesthesia delivery throughout surgery. After exposing the skull, a small hole was drilled and 350 nL of AAV9-TH-cytosolic roGFP or AAV9-TH-mitoroGFP delivered via a glass micropipette (Drummond Scientific Company) pulled on a Sutter P-97 puller. The substantia nigra pars compacta (SNc) was targeted at the following coordinates: AP: −3.05, ML: 1.20, and DV −4.30. All surgeries were performed in wild-type mice. Experiments in animals with stereotaxic delivery of AAV viral vectors were performed after at least 10 days post-op.
Ex vivo slice preparation: Mice were terminally anesthetized with a mixture of ketamine (50 mg/kg)/xylazine (4.5 mg/kg) and transcardially perfused with ice cold modified artificial cerebrospinal fluid (aCSF) containing in mM: 124.0 NaCl, 3.0 KCl, 1.0 CaCl2, 2.0 MgCl2, 26 NaHCO3, 1.0 NaH2PO4, and 16.66 glucose. Once perfused the brain was rapidly removed and either saggital or coronal slices containing the dorsolateral striatum (275 μm thick) or the SNc (220 μm thick) sectioned using a vibratome (VT1200S Leica Microsystems). Slices were transferred to a holding chamber containing normal aCSF containing in mM: 124.0 NaCl, 3.0 KCl, 2.0 CaCl2, 1.0 MgCl2, 26 NaHCO3, 1.0 NaH2PO4, and 16.66 glucose and allowed at least 30-40 minutes to recover prior to experiments. All solutions were pH 7.4, 310-320 mOsm and continually bubbled with 95% O2/5% CO2.
Ex vivo redox measurements and two photon microscopy: Oxidant stress was assessed using the redox sensitive roGFP probe targeted either to the cytosol or mitochondrial matrix as previously described.^10 Slices were transferred to a recording chamber and continuously perfused with normal aCSF at 32-34° C. Fluorescence was measured using an Ultima Laser Scanning Microscope system (Bruker) with a DODT contrast detector to provide bright-field transmission images with an Olympus 60/0.9NA lens. A two-photon laser (Chameleon Ultra II, Coherent Inc.) tuned to 920 nm was used to excite roGFP. Time series image acquisitions of the roGFP probe were obtained with 60 frames obtained over ˜20 seconds with 0.195 μm×0.195 μm pixels and 10-12 μsec dwell times. The dynamic range of the probe was determined with 2 mM dithiothreitol, a reducing agent, and 200 μM aldrithiol, an oxidizing agent, which were sequentially perfused and t-series acquired with each to determine the maximal and minimal fluorescence intensity. Test measurements were calculated as relative oxidation. T-series were analyzed offline and fluorescence measurements in multiple regions of interest evaluated with background subtracted.^10 Final data is presented as percent of control (aCSF perfusion).

[2] = system: human iPSC-derived dopamine neurons; test: iPSC redox measurements (roGFP, one photon microscopy); assay type: cell-based; details: for axonal mitochondrial stress in the intermembrane space: 100 μM levodopa vs control, IMS-roGFP
Source text: Human iPSC culture and neural differentiation: The iPSC line was generated from skin fibroblasts of a healthy individual through retroviral expression of OCT4, SOX2, cMYC, KLF4 and previously clinically characterized.^23-25 Differentiation of iPSCs into midbrain dopaminergic neurons was done according to published protocols.^26 To help control neuralization variability, cells were passaged en bloc (size of 1-2 mm) between days 11 and 14, followed by plating onto poly-d-lysine (PDL)/laminin coated 10 cm dishes. Between days 25 and 30, neural blocks were passed by accutase treatment onto PDL/laminin coated culture dishes. Neuralization growth factors were withdrawn at day 40 and neurons were maintained in Neurobasal media (Life Technologies) containing Neurocult SM1 (Stemcell technologies).
iPSC redox measurements and one photon microscopy: Human iPSC-derived dopaminergic neurons were grown on 12 mm glass coverslips and imaged between 75 and 88 days post-differentiation. Two to four days before experimentation, dopaminergic neurons were infected with viral vectors targeting roGFP expression to mitochondrial matrix (AAV9-TH-mitoroGFP), mitochondrial intermembrane space (AAV9-TH-IMSroGFP),^17 or the cytosol (AAV9-TH-cytoroGFP)^7. Cultures were transferred to an imaging chamber mounted on an inverted epifluorescence microscope (Nikon TE300) with a 40×/1.35NA oil-immersion objective. The imaging chamber was superfused with aCSF at a flow rate of 1 ml/min. Imaging experiments were carried out at 31-33° C. Cells were illuminated by Polychrome V (TILL Photonics) and emissions were captured with a cooled CCD camera (Hamamatsu ImagEM) and Slidebook imaging software (Intelligent Imaging Innovations). Regions of interests in the dendrites or axon were selected for image analysis. […] Afterwards, neurons were perfused with 2 mM dithiothreitol for 20 min and then 100 μM aldrithiol for 20 min to obtain full roGFP dynamic range.^7

[3] = system: tyrosine hydroxylase positive cells in the SNc; test: Methamphetamine 14 days plus 14 days withdrawal, stereology of tyrosine hydroxylase positive cells (Example 1); assay type: in vivo, mouse; details: 1 mg/kg rasagiline, 30 min pretreatment; 5 mg/kg methamphetamine 14 days
Protocol: as §1
Stereology: Brains were fixed with 4% paraformaldehyde and serial coronal sections ([…]) were stained for tyrosine hydroxylase. Total number of tyrosine hydroxylase positive cells were counted in the SNc with the optical fractionator method (West et al., 1991 Anat Rec p. 482; Ilijic et al., 2011 Neurobiol Dis p. 364; incorporated by reference in their entireties).

[4] = system: substantia nigra pars compacta dopaminergic neurons; test: Chronic in vivo methamphetamine administration for 28 days, stereology and striatal optical density (Example 2); details: 5 mg/kg methamphetamine
Protocol: Immunohistochemistry and stereological analysis: Mice were terminally anesthetized with a mixture of ketamine (50 mg/kg)/xylazine (4.5 mg/kg) and transcardially perfused with 4% paraformaldehyde, post-fixed overnight and cryoprotected in 30% sucrose/phosphate buffered saline (PBS) at 4° C. until use. Serial coronal sections (60 μm thick) were collected throughout the midbrain and striatum. To stain for tyrosine hydroxylase the anti-tyrosine hydroxylase polyclonal antibody (Millipore) 1:2000 followed by goat anti-rabbit IgG biotin conjugated antibody (Millipore) 1:500 with normal goat serum blocking solution was used; after antibody incubation and rinsing with PBS, sections were incubated with ABC Elite Kit (Vector) and processed for diaminobenzidine reaction. Slices were mounted on slides, allowed to dry overnight, dehydrated in ascending alcohol concentrations and mounted with DPX mountant (Sigma). The estimated number of tyrosine hydroxylase positive (TH^+) cells were stereologically counted as previously described.^27 Slices from DAT-Cre X Ai14 mice expressing TdTomato in dopaminergic neurons were mounted on slides, allowed to dry, and mounted with Prolong Gold antifade mountant (Invitrogen). The estimated number of tdTomato expressing cells were stereologically counted. Sampling for stereological quantification was done using an Olympus BX41 microscope with motorized stage (Applied Scientific Instrumentation) and computerized stereology software (Stereologer). The SNc was delineated in each animal in every other section and cells counted using a 40×/0.65NA Olympus lens.
Drug application in ex vivo brain slice or iPSC experiments was performed via perfusion in aCSF.

[5] = system: substantia nigra pars compacta dopaminergic neurons; test: Ex vivo brain slice cytosolic oxidant stress, cyto-roGFP probe, two photon microscopy; assay type: cell-based, mouse; details: bath application of 20 μM menadione
Protocol: as §1
Two photon microscopy: Ex vivo slices of the dorsolateral striatum or SNc were prepared and redox status determined as previously described (Guzman et al., 2010 Nature p. 696; incorporated by reference in its entirety). […] The dynamic range of the probe was determined by perfusing 2 mM dithiothreitol (DTT) to fully reduce the probe and 200 μM aldrithiol to fully oxidize the probe; data presented as % relative oxidation. […]
Ex vivo redox measurements and two photon microscopy: Oxidant stress was assessed using the redox sensitive roGFP probe targeted either to the cytosol or mitochondrial matrix as previously described.^10 Slices were transferred to a recording chamber and continuously perfused with normal aCSF at 32-34° C. Fluorescence was measured using an Ultima Laser Scanning Microscope system (Bruker) with a DODT contrast detector to provide bright-field transmission images with an Olympus 60/0.9NA lens. […] Test measurements were calculated as relative oxidation. […]

[6] = rasagiline 10 μM, listed as rasagaline
[7] = 1 mg/kg rasagiline pretreatment

`[Cl-].[K+]` [KCl] was tested. Which axonal mitochondrial stress ([1]; 15 mM KCl alone) did it give?
The axonal mitochondrial stress was “not significantly altered”.

And the axonal mitochondrial stress ([1]; 30 mM KCl perfusion)?
The axonal mitochondrial stress was “increased axonal mitochondrial stress”.

Which “axonal mitochondrial stress (mitochondrial matrix roGFP)” value ([2]; 100 μM levodopa vs basal) does the source give for `N[C@@H](Cc1ccc(O)c(O)c1)C(=O)O` [levodopa, L-3,4-dihydroxyphenylalanine] here?
The value was “increased axonal mitochondrial stress”.

And the “dendritic mitochondrial stress (mitochondrial matrix roGFP)” value ([2]; 100 μM levodopa vs basal)?
The value was “increased”.

What about the “axonal mitochondrial stress in the intermembrane space” value [2] of the same molecule?
Its value is “increased axonal mitochondrial stress in the intermembrane space”.

And the “axonal mitochondrial stress in the intermembrane space” value ([2]; listed as Levodopa)?
Its value is “robustly increased oxidant stress within the intermembrane space”.

And the “mitochondrial matrix oxidant stress in human dopaminergic neurons” value ([2]; levodopa)?
Its value is “increased mitochondrial matrix oxidant stress in human dopaminergic neurons in a MAO-dependent manner”.

How did the “effect on methamphetamine-induced loss of TH+ cells” value [3] turn out when `C#CCN[C@@H]1CCc2ccccc21` [rasagiline] was run?
Its value is “prevented meth-induced loss of TH+ cells”.

And the “effect on d-amphetamine-induced axonal mitochondrial stress” value ([1]; 10 μM d-amphetamine, rasagiline 10 μM)?
The value was “prevented”.

What about the “effect on methamphetamine-induced dendritic mitochondrial stress” value ([1]; rasagiline 10 μM) of the same molecule?
The value was “prevented”.

What about the “effect on methamphetamine-induced axonal (terminal) mitochondrial stress” value (“effect on methamphetamine-induced axonal” for short) ([1]; rasagiline 10 μM) of the same molecule?
Its value is “attenuated”.

And the “effect on methamphetamine-induced axonal” value [1, 6]?
The value was “prevented”.

And the “effect on levodopa-induced dendritic mitochondrial stress” value ([1]; rasagiline 10 μM)?
Its value is “prevented”.

What about the “effect on levodopa-induced axonal (terminal) mitochondrial stress” value (“effect on levodopa-induced axonal” for short) ([1]; rasagiline 10 μM) of the same molecule?
The value was “attenuated”.

What about the “effect on levodopa-induced axonal” value [1, 6] of the same molecule?
The value was “prevented”.

And the “basal mitochondrial stress, monoamine oxidase inhibitor alone” value ([1]; rasagiline 10 μM)?
The value was “Neither rasagiline nor clorgyline had any effect on basal mitochondrial oxidant stress; also recorded: had no effect on mitochondrial stress”.

What about the “effect on methamphetamine- and levodopa-induced mitochondrial stress” value [1] of the same molecule?
Its value is “attenuated”.

What about the “effect on methamphetamine-induced loss of SNc neurons, Dat-Cre X Ai14 mice” value ([4]; 1 mg/kg rasagiline 30 min pretreatment) of the same molecule?
Its value is “significantly reduced degeneration in both the striatum and SNc; also recorded: prevented”.

What about the “effect on methamphetamine-induced loss of SNc axons in the striatum” value [4, 7] of the same molecule?
The value was “significantly reduced degeneration in both the striatum and SNc; also recorded: prevented”.

And the “effect on methamphetamine-induced loss of TH+ neurons” value [4, 7]?
Its value is “prevented”.

How did the “effect on methamphetamine-induced dendritic mitochondrial stress” value ([1]; rasagiline 10 μM) turn out when `C#CCN(C)CCCOc1ccc(Cl)cc1Cl` [clorgyline] was run?
Its value is “prevented”.

What about the “effect on methamphetamine-induced axonal” value ([1]; rasagiline 10 μM) of the same molecule?
The value was “attenuated; also recorded: prevented rises in mitochondrial stress”.

What about the “effect on levodopa-induced dendritic mitochondrial stress” value ([1]; rasagiline 10 μM) of the same molecule?
The value was “prevented”.

What about the “effect on levodopa-induced axonal” value ([1]; rasagiline 10 μM) of the same molecule?
Its value is “attenuated; also recorded: prevented rises in mitochondrial stress”.

What about the “basal mitochondrial stress, monoamine oxidase inhibitor alone” value ([1]; rasagiline 10 μM) of the same molecule?
Its value is “Neither rasagiline nor clorgyline had any effect on basal mitochondrial oxidant stress; also recorded: had no effect on mitochondrial stress”.

What about the “effect on methamphetamine- and levodopa-induced mitochondrial stress” value [1] of the same molecule?
Its value is “attenuated; also recorded: diminished the mitochondrial redox effects of methamphetamine and levodopa”.

How did the “axonal (terminal) mitochondrial stress” value ([1]; 10 μM drug alone, relative to control (aCSF), dorsolateral striatum slices) turn out when `COC(=O)C1=C(C)NC(C)=C([N+](=O)[O-])C1c1ccccc1C(F)(F)F` (stereo not shown) [Bay K 8644] was run?
The value was “increased axonal mitochondrial stress”.

How did the cyto-roGFP oxidation state [5] turn out when `CC1=CC(=O)c2ccccc2C1=O` [menadione] was run?
Its cyto-roGFP oxidation state is > 200 % above baseline.
